Each block holds one compound with its values, some of them ahead of it.
How the values were obtained:
[1] = molecular target: T1, chymotrypsin (Bos taurus, UniProt P00766); conditions: previously reported, cited from earlier work
T1 construct: Chymotrypsin (a mixture of the α form and δ′ forms); purchased Sigma (St. Louis, Mo.)

[2] = molecular target: T2, α-chymotrypsin (Bos taurus, UniProt P00766); assay: pre-steady-state hydrolysis of p-NPA by chymotrypsin, on-line kinetic ESI-MS; format: biochemical; conditions: fit of kobs to Equation 12, pH 7.8, 20% methanol, 22 °C
T2 construct: Peaks labeled with α and δ′ correspond to α- and δ′-chymotrypsin, respectively; purchased Sigma (St. Louis, Mo.)
Source text: (§1) Chymotrypsin is a member of the serine protease family. ^86-88 Ser195 represents the reactive nucleophile in the active site of this enzyme. Although the physiological role of chymotrypsin is to serve as an endopeptidase, it also catalyzes the hydrolysis of esters, including numerous synthetic substrate analogs. […] Subsequently, Ser195 forms a covalent bond with the carbonyl carbon of the substrate, thus releasing the first hydrolysis product P1. The rate constant of this acylation step is denoted as k2. The subsequent de-acylation has a rate constant of k3, and it leads to regeneration of the free enzyme by hydrolysis of the Ser195-ester bond, through release of the second hydrolysis product P2. For conditions where S is present in large excess, it can be shown that the concentration of P1 as a function of time t in the pre-steady-state regime is given by Equation 9^58, 59: [P1](t)=C1(1−exp(−kobst))+C2t (9) and the concentration-time profile of the covalent EP2 complex can be expressed as Equation 10: [EP2](t)=C3(1−exp(−kobst)) (10). Consequently, the sum of the concentrations of free enzyme and ES complex are given by Equation 11: ([Efree]+[ES](t)=C4exp(−kobst)+C5 (11). C1, . . . , C5 in these expressions are constants, and kobs is given by Equation 12: [formula] where [S] is the substrate concentration. Measurements of kobs as a function of substrate concentration allow the determination of the parameters k2, k3, and Kd in Scheme 8.
(§2) On-line kinetic ESI-MS experiments. ESI-MS-based kinetic experiments were carried out on a custom built continuous flow mixing apparatus described in FIG. 2. Briefly, this setup consists of two concentric capillaries, that are connected to sample injection syringes. Reactions are initiated by mixing of two solutions at the outlet of the inner capillary. The reaction time is determined by the solution flow rate, and by the distance between the mixing region and the end of the outer capillary. For experiments in kinetic mode, the inner capillary is steadily withdrawn from the end of the outer capillary, while the mass spectrometer is set to monitor selected m/z values, corresponding to specific solution-phase species, as a function of time. In spectral mode, the inner capillary is set at specific distances from the end of the outer capillary, such that entire mass spectra can be obtained for selected reaction times.
(§3) For the experiments described here, both reactant solutions were introduced into the apparatus at 20 μL/min using syringe pumps (Harvard Apparatus, Saint Laurent, QC) for a total flow rate of 40 μL/min after the mixer. […]

[3] = molecular target: T3, δ′-chymotrypsin (Bos taurus, UniProt P00766); assay: as above; format: biochemical; conditions: fit of kobs to Equation 12, pH 7.8, 20% methanol, 22 °C
T3 construct: Peaks labeled with α and δ′ correspond to α- and δ′-chymotrypsin, respectively; purchased Sigma (St. Louis, Mo.)
Source text: as §1, §2, §3

[4] = molecular target: T4, chymotrypsin (a mixture of the α form and δ′ forms) (Bos taurus, UniProt P00766); assay: p-NPA hydrolysis by optical stopped-flow spectroscopy (release of p-NP); format: biochemical; conditions: weighted average of α and δ′-chymotrypsin
T4 construct: Chymotrypsin (a mixture of the α form and δ′ forms); purchased Sigma (St. Louis, Mo.)
Method: (§4) Optical Stopped-Flow Measurements. These measurements were performed on an SFM-4 instrument (Bio-Logic, Claix, France), using an observation wavelength of 664 nm for monitoring the demetalation of chlorophyll. The two stepper motor-driven syringes used were advanced at 3.5 mL/s each, for an instrument dead time of 3.3 ms. All experiments were carried out at room temperature (22±1° C.).
Enzymatic reactions. The limited solubility of p-NPA in purely aqueous solutions necessitated the use of 20% (v/v) methanol in the reaction mixture. […] These solutions were mixed in a 1:1 ratio with 32 μM chymotrypsin in water for a final pH of 7.8, which corresponds to the pH optimum of the enzyme. […] Experiments on bradykinin were carried out in an analogous manner, but in purely aqueous solution, and by using 20% (v/v) acetic acid in water as makeup solvent. […] Substrate concentrations given below represent the values in the reaction mixture, i.e., after the first mixing step. […]
Measurements of kobs as a function of substrate concentration were also carried out by stopped-flow spectroscopy, using the release of the yellow p-NP moiety as optical probe. In contrast to the ESI-MS experiments, these optical studies cannot discern the two forms of the enzyme, and therefore the measured data represent a weighted average of the substrate conversion caused by a and δ′-chymotrypsin. […]

[5] = refolding of ubiquitin from the A state, kinetic mode ESI-MS
Method: (§5) For demetalation experiments, syringe 1 contained 40 μM chlorophyll in methanol and syringe 2 contained HCl in methanol at concentrations ranging from 30 to 100 mM. Both syringes were advanced at 30 μL/min for a total flow rate 60 μL/min in the reaction capillary. Ubiquitin refolding studies were carried out by having syringe 1 filled with 20 μM protein in 46% water, 50% methanol, and 4% acetic acid. Syringe 2 contained water. The two syringes were advanced at 20 and 50 μL/min, respectively, for a total flow rate of 70 μL/min. Final solution conditions after mixing ere 14.3% methanol and 1.1% acetic acid.
The A state was populated by exposing the protein to 50% methanol and 4% acetic acid; refolding was initiated by mixing with an excess volume of water. ESI mass spectra of ubiquitin for different times after initiation of refolding are depicted in FIG. 7. […] This spectrum is practically indistinguishable from that of the protein prior to initiation of refolding (data not shown) and very similar to ubiquitin A state spectra that have been published previously.^14, 51 As refolding proceeds, the relative abundance of highly charged protein ions decreases and that of the […] and 7+ ions increases (FIGS. 7B,C). The final spectrum was recorded off-line 5 min after initiation of refolding in a manual mixing experiment.
The diffusion coefficient of ubiquitin can be estimated to be around D=1×10^−10 m^2/s.^52 According to condition 7, this implies that diffusion effects on the observed kinetics are negligible in an experimental time window up to τ≈2 s. The data can therefore be fitted based on eq 5 (solid lines in FIG. 8). C(τ) expressions for the 13+ and 12+ions were generated by assuming the model function C(t)=a1 exp(−kobst)+a0, whereas the analysis of the 8+ and 7+ ions was based on C(t)=b1(1−exp(−kobst))+b0. […] Instead, the kinetic profiles level off at ˜20% of their initial values. This effect can be attributed to a subpopulation of slow-folding ubiquitin molecules that contain non-native cis-proline isomers.^53 Proline isomerization, taking place on the order of tens of seconds, 54 is the rate-limiting step for the refolding of this subpopulation. […] Processes occurring on such a slow time scale are beyond the range accessible by our rapid mixing setup.

[6] = demetalation of chlorophyll a in acidic methanol, kinetic mode ESI-MS; format: physicochemical; conditions: HCl, quadratic fit
Method: as §5
On-Line Kinetic ESI-MS Measurements. These measurements were carried out using a custom-built continuous-flow mixing apparatus that is based on two concentric capillaries (FIG. 1).
Instrument Performance in Kinetic Mode. […]
The apparatus depicted in FIG. 1 was used for monitoring the kinetics of chlorophyll demetalation in methanol solution for acid concentrations ranging from 15 to 50 mM. […] Nevertheless, it is clear that the temporal resolution of our novel mixing device exceeds that of other on-line ESI-MS techniques, which so far allowed rate constants up to ˜25 s^−1 to be measured.^16

[7] = demetalation of chlorophyll a in acidic methanol, optical stopped-flow spectroscopy; format: physicochemical; conditions: 664 nm, quadratic fit
Method: as §4
Instrument Performance in Kinetic Mode. The demetalation of chlorophyll a in acidic solution is a well-characterized process, during which the central magnesium of the porphyrin is displaced by two protons.^40-42 This reaction represents a convenient test system, because it allows kinetic measurements by ESI-MS and by standard optical stopped-flow absorption spectroscopy. When studied under pseudo-first-order conditions, the rate constant of the reaction is given by kobs=k[H^+]^2. The intrinsic rate constant k in this expression is known to be strongly solvent-dependent.^41, 42

[8] = much higher buffer concentrations
[9] = read-out: dissociation constant Kd

- k2 (acylation rate constant) [2]: 3.2 ± 0.3 s⁻¹
- Kd [2, 9]: 1.4 ± 0.2 mM
- k2 (acylation rate constant) [3]: 3.7 ± 0.3 s⁻¹
- Kd [3, 9]: 1.7 ± 0.2 mM
- Kd [4]: 1.6 ± 0.1 mM
- k2 [4]: 3.6 ± 0.2 s⁻¹
Compound: CC(=O)Oc1ccc([N+](=O)[O-])cc1 [p-NPA, para-nitrophenyl acetate]
- Kd [1, 8]: 7 mM
- k2 [1, 8]: 3 s⁻¹
- k3 [1]: 0.03 s⁻¹

Compound: ubiquitin
- refolding kobs ([5]; 8+ ion, 14.3% methanol, 1.1% acetic acid): 5.3 s⁻¹
- refolding kobs ([5]; 9+ ion): 5.3 s⁻¹
- refolding kobs ([5]; 12+ ion): 5.2 s⁻¹
- refolding kobs ([5]; 13+ ion): 5.1 s⁻¹
- refolding kobs, average value ([5]; average of the four fits): 5.2 s⁻¹

Compound: C=Cc1c(C)c2cc3nc(c4c5[n-]c(cc6nc(cc1[n-]2)C(C)=C6CC)c(C)c5C(=O)[C@@H]4C(=O)OC)[C@@H](CCC(=O)OC/C=C(\C)CCC[C@H](C)CCC[C@H](C)CCCC(C)C)[C@@H]3C.[Mg+2] [chlorophyll a, Chlorophyll a]
- intrinsic rate constant k of demetalation (kobs=k[H+]^2) [6]: 0.048±0.002 mM^−2s^−1
- intrinsic rate constant k of demetalation [7]: 0.050±0.001 mM^−2 s^−1

Reference: patent publication US6870154B1, “Capillary mixer with adjustable reaction chamber volume for mass spectrometry” (The University of Western Ontario, priority 2004, dated 2005)
